The source of these data is patent US20100184698A1, “USE OF A […] […] A […] AGENT” (priority 2007, published 2010).

Where two headings read alike, the source gives them in different places. Where no end group is shown, it is not given here.

In this test the test system is drug-resistant Mycobacterium tuberculosis.

As for `CCNC(=O)[C@@H]1CCCN1C(=O)[C@H](CCCN=C(N)N)NC(=O)[C@H](CC(C)C)NC(=O)[C@@H](Cc1c[nH]c2ccccc12)NC(=O)[C@H](Cc1ccc(O)cc1)NC(=O)[C@H](CO)NC(=O)[C@H](Cc1c[nH]c2ccccc12)NC(=O)[C@H](Cc1cnc[nH]1)NC(=O)[C@@H]1CCC(=O)N1` [Peptide 1, Pyr-His-Trp-Ser-Tyr-D-Trp-Leu-Arg-Pro-NHEt], the “inhibition of the growth of Mycobacterium tuberculosis” value (drug-resistant, 5 micrograms per ml) was 100%. In the case of “Ile-Asn-Leu-Lys-Ala-Leu-Ala-Ala-Leu-Ala-Lys-Lys-Ile-Leu-NH2 (INLKALAALAKKIL-NH2) [Peptide 2]”, the “inhibition of the growth of Mycobacterium tuberculosis” value is listed as 100%.
